Read-outs that look alike come from different tables or passages of the source. Each block holds one compound with its values, some of them ahead of it.
What was measured:
[1] = system: Arabidopsis Col-0 ecotype; test: Soil drought experiment, Arabidopsis; format: in vivo, Arabidopsis thaliana
Procedure: Seeds of Arabidopsis Col-0 ecotype were sterilized with NaClO and then sown on ½ MS solid medium at 4° C. for 3 days of vernalization. After 6 days of growing, the well-grown seedlings having uniform size were selected and transferred into 8×7×6 cm^3 pots. Each pot was filled with the same weight of soil and the same number of plants (six plants) was planted to reduce experimental error. All the pots were subjected to a short-day culture at 22° C. After two weeks, watering was stopped for drought treatment. […] The position of the flowerpot was changed every day during the process of drought to reduce the error caused by environmental factors. During the whole drought period, the solution was sprayed twice in total and photos were recorded regularly. The watering was resumed in about three weeks.

[2] = system: soybean Williams 82; test: Soybean leaf transpiration experiment (thermal imaging); format: in vivo
Procedure: After three weeks of continuous watering, 0.05% tween-20 and corresponding concentrations of DMSO (control)/compound (+)-ABA/0918/1127 were sprayed onto the plants in a single administration with an amount of 1.2 ml/pot. Images were taken daily using the FLIR A655sc thermal imaging camera at the same time before and after spraying. The Williams 82 ecotype was used in soybean leaf transpiration experiments for compounds 0604c, 0918 and 1127 and was long-day cultured at 26° C. After the plants grew and had 3 leaves in each of 3 groups, 0.05% tween-20 and 50 μM DMSO (control)/(+)-ABA/0604c/0918/1127 compounds were sprayed in a single administration with an amount of 4 ml/pot. Images were taken daily using the FLIR A655sc thermal imaging camera at the same time before and after spraying.
(§1) Leaf transpiration experiments of soybean and cotton for compound 0720B were carried out at 26° C. with long-day lighting. 16 days and 23 days after sowing, a solution containing 0.1% tween-20 and corresponding concentration of (+)-ABA, or 0720B compound or 0.1% Tween-20 and 0.05% DMSO (control) was sprayed in an amount of 4 ml/pot. Images were taken daily using the FLIR A655sc thermal imaging camera at the same time before and after spraying.

[3] = target: T1, PYL7 + HAB1 (Arabidopsis thaliana, UniProt Q1ECF1); test: AlphaScreen experiment, PYL7 + HAB1; format: binding
T1 construct: made in house; host or cells: E. coli BL21 (DE3)
T1 sequence (Q1ECF1 1-211): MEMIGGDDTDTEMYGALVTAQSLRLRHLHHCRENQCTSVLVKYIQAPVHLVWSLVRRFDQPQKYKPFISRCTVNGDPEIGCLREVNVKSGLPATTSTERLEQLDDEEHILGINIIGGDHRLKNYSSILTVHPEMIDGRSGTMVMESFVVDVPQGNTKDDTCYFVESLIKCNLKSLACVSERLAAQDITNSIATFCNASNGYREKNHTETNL
T1 sequence (Q9CAJ0 172-511 partner limits assumed): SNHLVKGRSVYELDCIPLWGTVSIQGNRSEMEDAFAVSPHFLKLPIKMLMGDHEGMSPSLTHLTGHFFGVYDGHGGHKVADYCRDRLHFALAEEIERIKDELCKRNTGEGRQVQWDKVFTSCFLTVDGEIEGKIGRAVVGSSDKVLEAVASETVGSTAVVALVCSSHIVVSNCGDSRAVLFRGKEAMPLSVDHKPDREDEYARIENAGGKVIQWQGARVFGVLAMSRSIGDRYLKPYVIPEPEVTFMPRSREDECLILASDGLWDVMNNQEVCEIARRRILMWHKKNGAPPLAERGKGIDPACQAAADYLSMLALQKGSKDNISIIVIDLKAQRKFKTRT
Procedure: (§2) After incubating for 1.5 hours at room temperature in the dark, it was placed into an Envision Plate Reader (available from Perkin Elmer) under the programmed AlphaScreen procedure for readings.

[4] = system: Arabidopsis thaliana Col-0 ecotype seeds; test: Seed germination, Col-0; format: in vivo; conditions: 1 μM; six days after seeding
From the text: (§3) Two lines of plant were sown simultaneously on a single medium of 6 cm diameter, with 15 seeds sown for each line and 4 replicates for each compound. […]

[5] = system: pyr1;pyl1;pyl4 triple mutant seeds; test: Seed germination, PYR/PYL triple mutant; format: in vivo, Arabidopsis thaliana; conditions: 1 μM; six days after seeding
From the text: as §3

[6] = system: Arabidopsis ABA synthesis defective mutant aba2-1; format: in vivo, Arabidopsis thaliana; conditions: 5 μM sprayed; after two days; vs DMSO
[7] = target: T2, PYR1 + HAB1 (Arabidopsis thaliana, UniProt O49686); test: AlphaScreen experiment, PYR1 + HAB1; format: binding; conditions: column 2
T2 sequence (O49686 1-191): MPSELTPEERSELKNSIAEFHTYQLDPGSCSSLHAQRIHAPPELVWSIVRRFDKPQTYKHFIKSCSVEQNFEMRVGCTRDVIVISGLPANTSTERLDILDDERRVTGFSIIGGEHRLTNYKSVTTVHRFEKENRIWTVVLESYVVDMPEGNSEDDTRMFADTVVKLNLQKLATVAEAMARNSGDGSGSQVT
T2 sequence (Q9CAJ0 172-511 partner): T1 sequence (Q9CAJ0 172-511 partner limits assumed)
Procedure: as §2

[8] = target: T3, PYL2 + HAB1 (Arabidopsis thaliana, UniProt O80992); test: AlphaScreen experiment, PYL2 + HAB1; format: binding
T3 construct: made in house; host or cells: E. coli BL21 (DE3)
T3 sequence (O80992 14-188 limits assumed): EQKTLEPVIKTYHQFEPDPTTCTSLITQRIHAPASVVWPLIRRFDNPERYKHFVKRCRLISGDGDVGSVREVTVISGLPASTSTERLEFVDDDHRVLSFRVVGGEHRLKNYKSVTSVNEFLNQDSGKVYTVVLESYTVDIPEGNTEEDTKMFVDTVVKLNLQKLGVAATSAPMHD
T3 sequence (Q9CAJ0 172-511 partner limits assumed): T1 sequence (Q9CAJ0 172-511 partner limits assumed)
Procedure: as §2

[9] = system: cotton; test: Cotton leaf transpiration experiment (thermal imaging); format: in vivo; conditions: 50 μM; after two days; vs DMSO
Procedure: as §1

[10] = target: T3, PYL2 + HAB1; test: HAB1 phosphatase activity assay with PYL2, SnRK2.6 phosphorylated polypeptide substrate; format: biochemical
Procedure: (§4) HAB1 Phosphatase Activity Assay […] The reaction system was incubated at room temperature for 30 minutes, followed by a further reaction for 30 minutes after adding an 11-amono acid phosphorylated polypeptide as a substrate. The phosphorylated polypeptide consisting of amino acid 170-180 of SnRK2.6 protein kinase (sequence […]) was purchased from […] company, wherein phosphorylated […] was a known HAB1 dephosphorylation target site. After 30 minutes, chromogenic reagent (purchased from BioVision) was added and the absorbance at 650 nm was read on a microplate reader (Molecular Devices).

[11] = system: ABA-induced environmental stress-related gene expression; test: Gene expression analysis (fluorescence quantitative PCR); format: in vivo, Arabidopsis thaliana (Col-0); conditions: for expression levels of most ABA-induced stress-related genes compared with ABA: 10 μM, 6 hours of treatment, 10-day-aged seedlings
Procedure: The whole plant or leaves were taken, and RNA extraction was carried out by using conventional methods. After reverse transcription, the fluorescence quantitative PCR was carried out. Triple biological samples were taken for each treatment which was performed twice. The ACT7 gene was used as a reference gene.

[12] = system: PYR/PYL receptors (PYR1, PYL1, PYL2 and PYL7)-HAB1 complex; test: Broad spectrum experiment on PYR/PYL receptors (HAB1 phosphatase activity); format: biochemical, Arabidopsis; conditions: 1 μM
Procedure: as §4

[13] = system: soybean GmPYL3 and GmPYL6 + Arabidopsis AtHAB1; test: AlphaScreen experiment with soybean GmPYL receptors; format: binding; conditions: FIG. 9
Procedure: as §2

[14] = 5 μM sprayed, 18 days after drought
[15] = 10 μM sprayed, after 17 days of drought
[16] = number in brackets, read-out: Half maximum effect concentration EC50 (PYL2 + HAB1)
[17] = number in brackets, read-out: Half maximum effect concentration EC50 (PYL7 + HAB1)
[18] = number in brackets, read-out: Half maximum effect concentration EC50 (PYR1 + HAB1)

SMILES: CC1=CC(=O)CC(C)(C)[C@@]1(O)/C=C/C(C)=C\C(=O)O [ABA, Abscisic Acid, reference compound]
plant survival [1, 14]: died because of drought
plant survival [1, 15]: died because of drought
leaf temperature ([2]; 50 μM sprayed, 0.2 μmol per plant, after three days, vs DMSO): had no difference with the control
leaf temperature ([2]; two days after spraying, 0720B 20 μM or 50 μM, ABA 50 μM): had no difference from that in the control group
EC50 ([3]; Half maximum effect concentration EC50 (PYL7 + HAB1), class, class symbol): 1 to 10 µM
EC50 ([3]; Half maximum effect concentration EC50 (PYL7 + HAB1), number in brackets): 1.07 µM
germination of Col-0 ecotype seeds [4]: could still inhibit germination of Col-0 ecotype seeds
germination of pyr1;pyl1;pyl4 triple mutant seeds [5]: could not inhibit germination of PYR/PYL triple mutant pyr1;pyl1;pyl4 seeds
leaf surface temperature [6]: higher than that of DMSO control group
EC50 ([7]; Half maximum effect concentration EC50 (PYR1 + HAB1), class, class symbol): 0.1 to 1 µM
EC50 ([7]; Half maximum effect concentration EC50 (PYR1 + HAB1), number in brackets): 0.7 µM
EC50 ([8]; Half maximum effect concentration EC50 (PYL2 + HAB1), class, class symbol): 0.1 to 1 µM
EC50 ([8]; Half maximum effect concentration EC50 (PYL2 + HAB1), number in brackets): 0.41 µM
leaf temperature [9]: had no difference from that in the control group

SMILES: CCCN1C(=O)CCc2cc(NS(=O)(=O)Cc3ccc(C)cc3)ccc21 [AM1, 4-methyl-N-(1,2,3,4-tetrahydro-2-oxo-1-propyl-6-quinolinyl)-benzene methanesulfonamide, reference compound]
plant survival [1, 15]: died because of drought
germination of Col-0 ecotype seeds [4]: could still inhibit germination of Col-0 ecotype seeds
germination of pyr1;pyl1;pyl4 triple mutant seeds [5]: could not inhibit germination of PYR/PYL triple mutant pyr1;pyl1;pyl4 seeds
leaf surface temperature [6]: higher than that of DMSO control group
inhibition ratio Z of HAB1 relative enzyme activity (PYL2 + HAB1) ([10]; at 0.1 μM, Z relative to ABA): 86%
expression levels of most ABA-induced stress-related genes compared with ABA [11]: lower than the level in the plants treated with 10 μM ABA
EC50 [8, 16]: 0.48 µM

SMILES: CCCn1c(=O)ccc2cc(NS(=O)(=O)Cc3c(F)c(F)c(C)c(F)c3F)ccc21 [Compound 0717]
expression levels of most ABA-induced stress-related genes compared with ABA [11]: significantly exceeded the level in the plants treated with 10 μM ABA

SMILES: CCCN1C(=O)CC(C)(C)c2cc(NS(=O)(=O)Cc3c(F)c(F)c(C)c(F)c3F)ccc21 [Compound 0825A]
inhibition of the dephosphorylation effect of HAB1 on SnRK2.6 phosphorylated polypeptide compared with ABA ([10]; PYL2 receptor, same concentration as ABA): significantly better than that of ABA at the same concentration

SMILES: CCCN1C(=O)CCc2cc(NS(=O)(=O)Cc3c(F)c(F)c(C(F)(F)F)c(F)c3F)ccc21 [Compound 1020B]
EC50 [7, 18]: 0.05 µM
EC50 [8, 16]: 0.08 µM

SMILES: CCCN1C(=O)CCc2cc(NS(=O)(=O)Cc3ccc(C)c(Cl)c3)ccc21 [Compound 1103B]
EC50 [3, 17]: 0.15 µM
EC50 [7, 18]: 0.12 µM
EC50 [8, 16]: 0.05 µM

SMILES: CCCN1C(=O)CCc2cc(NS(=O)(=O)Cc3ccc(C)cc3F)ccc21 [Compound 1125A]
EC50 [3, 17]: 0.04 µM
EC50 [7, 18]: 0.05 µM
EC50 [8, 16]: 0.03 µM

Second part, led by results:

EC50 [3, 17]: 0.03 µM
binding ability with PYR1/PYL1/PYL2/PYL7 compared with ABA ([12]; FIG. 1, FIG. 13): significantly higher than those of ABA
EC50 [7, 18]: 0.04 µM
EC50 [8, 16]: 0.04 µM
affinities for soybean GmPYL proteins compared with ABA [13]: significantly higher affinities
SMILES: CCCN1C(=O)CCc2cc(NS(=O)(=O)Cc3ccc(C)c(F)c3)ccc21 [Compound 0604c]
plant survival [1, 15]: still survived
binding to PYR/PYL receptors [12]: could bind with PYR1/PYL1/PYL2/PYL3/PYL4/PYL5/PYL7/PYL10
germination of Col-0 ecotype seeds [4]: could still inhibit germination of Col-0 ecotype seeds
germination of pyr1;pyl1;pyl4 triple mutant seeds [5]: could not inhibit germination of PYR/PYL triple mutant pyr1;pyl1;pyl4 seeds
expression levels of most ABA-induced stress-related genes compared with ABA [11]: significantly exceeded the level in the plants treated with 10 μM ABA
expression level of relevant genes compared with ABA ([11]; one day after treatment, ABA 10 μM): significantly higher than that in the plants treated with 10 μM ABA

EC50 [7, 18]: 0.04 µM
EC50 [8, 16]: 0.06 µM
SMILES: CCCN1C(=O)CCc2cc(NS(=O)(=O)Cc3ccc(Cl)cc3F)ccc21 [Compound 0925]

EC50 [7, 18]: 0.14 µM
EC50 [8, 16]: 0.08 µM
SMILES: CCCN1C(=O)CCc2cc(NS(=O)(=O)Cc3ccc(C(F)(F)F)c(F)c3)ccc21 [Compound 1020A]

EC50 [3, 17]: 0.02 µM
EC50 [7, 18]: 0.02 µM
EC50 [8, 16]: 0.02 µM
SMILES: CCCN1C(=O)CCc2cc(NS(=O)(=O)Cc3cc(F)c(C)c(F)c3)ccc21 [Compound 1125B]
plant survival [1, 14]: still survived

— patent US10842151B2, “Small molecule compound for enhancing plant stress resistance” (SHANGHAI INSTITUTES FOR BIOLOGICAL SCIENCES, CHINESE …, priority 2015, dated 2020)
